Results from patent US8835377B2, “Oral delivery of peptide pharmaceutical compositions” (UGP Therapeutics, Inc., priority 2004, dated 2014).

Test: Pharmacokinetics after duodenal injection of unformulated or formulated Dmt-DALDA in anesthetized rats (plasma, HPLC-UV)
Assay type: in vivo
Conditions: rats, formulated solution containing citric acid and lauroyl carnitine
Protocol: In the experiments represented in the subject Figure, six anesthetized rats (which were color-coded as: red, white, blue, orange, green and yellow) were given 0.7 mL Dmt-DALDA (1.6 mg/mL) with a syringe through a 27 gauge needle into the duodenum. This injection procedure was followed due to the technical difficulty inherent in preparing capsules which can be swallowed by small animals the size of a rat. The intraduodanal injection, therefore, mimics the release of the components of an enteric-coated capsule formulation which would pass through the esophagus and stomach and release its contents in the duodenum. Three of the rats (red, white and blue) were given Unformulated Dmt-DALDA in which there were no additional components (i.e., other than the Dmt-DALDA), while the other three rats (orange, green and yellow) were given Formulated Dmt-DALDA which included, in addition to the Dmt-DALDA, 0.5M citric acid and lauroyl carnitine (10 mg/ml). Samples of blood were taken from the carotid artery through an indwelling catheter before and 5, 15, 30, 60 and 120 minutes after the administration of the respective formulations (i.e., Formulated and Unformulated). The blood samples were centrifuged and the resulting plasma supernatants were stored frozen at −20° C. […] Peptide was detected with an ultraviolet (UV) detector set at a wavelength of 210 nm. […] Table I, moreover, provides the standard deviations for the data obtained regarding each of the test rats, which standard deviations are also indicated in FIG. 1.
Table II (below) summarizes the pharmacokinetic parameters in rats of orally administered unformulated and formulated Dmt-DALDA as those terms are defined above. Cmax refers to the maximum concentration of peptide detected in the rat plasma. The area under the curve (AUC) is a measure of the extent of peptide absorption and is calculated by the trapezoidal rule from a plot of peptide concentration as a function of time. Tmax indicates when the maximum concentration of the Dmt-DALDA in the blood serum was obtained.

SMILES: Cc1cc(O)cc(C)c1C[C@H](N)C(=O)N[C@H](CCCNC(=N)N)C(=O)N[C@@H](Cc1ccccc1)C(=O)N[C@@H](CCCCN)C(N)=O [Dmt-DALDA, H-2,6-dimethyltyrosine-D-Arginine-Phenylalanine-Lysine-NH2]
- Cmax and AUC, formulated solution vs unformulated: significantly enhanced
